The target of one test is T1, human Nav1.3 channels (Homo sapiens, UniProt Q9NY46).
T1 construct: expressed in transfected cells; host or cells: HEK293
Description: FRET assay, human Nav1.3 (EFS on FDSS). It counts as cell-based. Conditions: HEK293 cells expressing human Nav1.3, read-out: IC50 against Nav1.3. Summed up:
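HEK293 cells expressing the channel, loaded with 10 microM CC2-DMPE then 15 microM DiSBAC2(3) plus 0.555 mM VABSC-1 in pH 7.4 HEPES buffer at room temperature. Membrane potential changes evoked by electrical field stimulation after compound addition; IC50 from 440 nm-normalized FRET ratios.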

The next test concerns the target T2, human Nav1.7 channels (Homo sapiens, UniProt Q15858).
T2 construct: expressed in transfected cells; host or cells: CHO
Description: FRET assay, human Nav1.7 (EFS on FDSS). It counts as cell-based. To be noted: CHO cells expressing human Nav1.7, read-out: IC50 against Nav1.7. In short, it runs like this: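 CHO cells stably expressing the channel, loaded with CC2-DMPE (10 µM) then DiSBAC2(3) (15 µM) plus VABSC-1, in HEPES-buffered saline pH 7.4 at room temperature. Electrical field stimulation on FDSS; FRET ratio at 440 nm fitted for IC50.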

IC50 data for 23 compounds are collected here from patent US9302991B2, “Arylamide derivatives as TTX-S blockers” (RaQualia Pharma Inc., priority 2010, dated 2016).

T1 sequence (Q9NY46 whole entry): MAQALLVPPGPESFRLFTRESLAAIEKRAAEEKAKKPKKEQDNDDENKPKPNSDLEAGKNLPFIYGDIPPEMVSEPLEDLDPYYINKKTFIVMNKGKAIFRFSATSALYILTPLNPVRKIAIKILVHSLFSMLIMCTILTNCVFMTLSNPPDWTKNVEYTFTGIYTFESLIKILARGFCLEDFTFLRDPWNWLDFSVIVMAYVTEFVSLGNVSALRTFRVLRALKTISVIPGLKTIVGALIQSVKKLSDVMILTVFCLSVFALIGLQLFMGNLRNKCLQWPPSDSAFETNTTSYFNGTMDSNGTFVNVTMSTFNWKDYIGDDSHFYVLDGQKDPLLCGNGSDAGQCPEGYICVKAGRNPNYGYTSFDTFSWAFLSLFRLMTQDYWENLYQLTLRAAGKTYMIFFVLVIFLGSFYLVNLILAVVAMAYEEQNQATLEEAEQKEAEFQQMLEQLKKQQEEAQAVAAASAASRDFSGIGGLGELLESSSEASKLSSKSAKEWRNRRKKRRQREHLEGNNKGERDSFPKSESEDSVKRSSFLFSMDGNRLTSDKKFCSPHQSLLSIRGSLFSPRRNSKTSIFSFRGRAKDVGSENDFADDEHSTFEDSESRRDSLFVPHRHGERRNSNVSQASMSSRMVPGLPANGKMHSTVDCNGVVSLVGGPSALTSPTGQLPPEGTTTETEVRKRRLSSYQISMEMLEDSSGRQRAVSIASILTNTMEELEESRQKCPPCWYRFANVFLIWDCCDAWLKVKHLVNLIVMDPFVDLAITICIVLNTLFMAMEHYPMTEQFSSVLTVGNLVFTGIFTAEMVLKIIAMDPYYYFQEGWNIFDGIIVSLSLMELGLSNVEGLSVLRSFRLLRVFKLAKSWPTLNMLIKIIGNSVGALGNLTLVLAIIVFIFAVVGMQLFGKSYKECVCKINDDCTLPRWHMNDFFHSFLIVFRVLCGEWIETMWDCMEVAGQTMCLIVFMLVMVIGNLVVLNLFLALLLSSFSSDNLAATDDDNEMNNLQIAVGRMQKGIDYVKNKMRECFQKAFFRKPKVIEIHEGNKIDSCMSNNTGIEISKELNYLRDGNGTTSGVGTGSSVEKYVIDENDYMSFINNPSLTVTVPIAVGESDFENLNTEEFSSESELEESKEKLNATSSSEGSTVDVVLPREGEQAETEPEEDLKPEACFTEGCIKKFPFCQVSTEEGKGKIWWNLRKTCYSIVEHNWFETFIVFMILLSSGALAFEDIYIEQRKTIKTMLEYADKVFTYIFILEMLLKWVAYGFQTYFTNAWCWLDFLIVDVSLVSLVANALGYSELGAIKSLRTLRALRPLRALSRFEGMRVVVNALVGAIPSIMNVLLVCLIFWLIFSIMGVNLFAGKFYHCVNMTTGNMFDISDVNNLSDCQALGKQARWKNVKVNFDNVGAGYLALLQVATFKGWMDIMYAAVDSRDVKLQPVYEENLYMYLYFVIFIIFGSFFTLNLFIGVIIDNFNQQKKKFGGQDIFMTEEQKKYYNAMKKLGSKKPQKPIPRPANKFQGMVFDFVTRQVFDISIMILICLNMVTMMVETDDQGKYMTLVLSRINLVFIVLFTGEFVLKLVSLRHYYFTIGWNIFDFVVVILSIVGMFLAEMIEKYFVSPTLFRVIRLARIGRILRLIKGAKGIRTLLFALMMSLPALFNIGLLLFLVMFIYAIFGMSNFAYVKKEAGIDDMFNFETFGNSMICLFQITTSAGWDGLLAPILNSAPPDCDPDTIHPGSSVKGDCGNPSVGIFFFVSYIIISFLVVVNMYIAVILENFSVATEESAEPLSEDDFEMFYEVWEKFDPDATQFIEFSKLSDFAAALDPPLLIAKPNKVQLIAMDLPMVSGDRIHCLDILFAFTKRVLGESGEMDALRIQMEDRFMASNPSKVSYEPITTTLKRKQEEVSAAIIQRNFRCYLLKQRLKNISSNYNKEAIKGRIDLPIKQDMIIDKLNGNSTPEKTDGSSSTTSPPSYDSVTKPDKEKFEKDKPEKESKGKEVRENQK
T2 sequence (Q15858 whole entry): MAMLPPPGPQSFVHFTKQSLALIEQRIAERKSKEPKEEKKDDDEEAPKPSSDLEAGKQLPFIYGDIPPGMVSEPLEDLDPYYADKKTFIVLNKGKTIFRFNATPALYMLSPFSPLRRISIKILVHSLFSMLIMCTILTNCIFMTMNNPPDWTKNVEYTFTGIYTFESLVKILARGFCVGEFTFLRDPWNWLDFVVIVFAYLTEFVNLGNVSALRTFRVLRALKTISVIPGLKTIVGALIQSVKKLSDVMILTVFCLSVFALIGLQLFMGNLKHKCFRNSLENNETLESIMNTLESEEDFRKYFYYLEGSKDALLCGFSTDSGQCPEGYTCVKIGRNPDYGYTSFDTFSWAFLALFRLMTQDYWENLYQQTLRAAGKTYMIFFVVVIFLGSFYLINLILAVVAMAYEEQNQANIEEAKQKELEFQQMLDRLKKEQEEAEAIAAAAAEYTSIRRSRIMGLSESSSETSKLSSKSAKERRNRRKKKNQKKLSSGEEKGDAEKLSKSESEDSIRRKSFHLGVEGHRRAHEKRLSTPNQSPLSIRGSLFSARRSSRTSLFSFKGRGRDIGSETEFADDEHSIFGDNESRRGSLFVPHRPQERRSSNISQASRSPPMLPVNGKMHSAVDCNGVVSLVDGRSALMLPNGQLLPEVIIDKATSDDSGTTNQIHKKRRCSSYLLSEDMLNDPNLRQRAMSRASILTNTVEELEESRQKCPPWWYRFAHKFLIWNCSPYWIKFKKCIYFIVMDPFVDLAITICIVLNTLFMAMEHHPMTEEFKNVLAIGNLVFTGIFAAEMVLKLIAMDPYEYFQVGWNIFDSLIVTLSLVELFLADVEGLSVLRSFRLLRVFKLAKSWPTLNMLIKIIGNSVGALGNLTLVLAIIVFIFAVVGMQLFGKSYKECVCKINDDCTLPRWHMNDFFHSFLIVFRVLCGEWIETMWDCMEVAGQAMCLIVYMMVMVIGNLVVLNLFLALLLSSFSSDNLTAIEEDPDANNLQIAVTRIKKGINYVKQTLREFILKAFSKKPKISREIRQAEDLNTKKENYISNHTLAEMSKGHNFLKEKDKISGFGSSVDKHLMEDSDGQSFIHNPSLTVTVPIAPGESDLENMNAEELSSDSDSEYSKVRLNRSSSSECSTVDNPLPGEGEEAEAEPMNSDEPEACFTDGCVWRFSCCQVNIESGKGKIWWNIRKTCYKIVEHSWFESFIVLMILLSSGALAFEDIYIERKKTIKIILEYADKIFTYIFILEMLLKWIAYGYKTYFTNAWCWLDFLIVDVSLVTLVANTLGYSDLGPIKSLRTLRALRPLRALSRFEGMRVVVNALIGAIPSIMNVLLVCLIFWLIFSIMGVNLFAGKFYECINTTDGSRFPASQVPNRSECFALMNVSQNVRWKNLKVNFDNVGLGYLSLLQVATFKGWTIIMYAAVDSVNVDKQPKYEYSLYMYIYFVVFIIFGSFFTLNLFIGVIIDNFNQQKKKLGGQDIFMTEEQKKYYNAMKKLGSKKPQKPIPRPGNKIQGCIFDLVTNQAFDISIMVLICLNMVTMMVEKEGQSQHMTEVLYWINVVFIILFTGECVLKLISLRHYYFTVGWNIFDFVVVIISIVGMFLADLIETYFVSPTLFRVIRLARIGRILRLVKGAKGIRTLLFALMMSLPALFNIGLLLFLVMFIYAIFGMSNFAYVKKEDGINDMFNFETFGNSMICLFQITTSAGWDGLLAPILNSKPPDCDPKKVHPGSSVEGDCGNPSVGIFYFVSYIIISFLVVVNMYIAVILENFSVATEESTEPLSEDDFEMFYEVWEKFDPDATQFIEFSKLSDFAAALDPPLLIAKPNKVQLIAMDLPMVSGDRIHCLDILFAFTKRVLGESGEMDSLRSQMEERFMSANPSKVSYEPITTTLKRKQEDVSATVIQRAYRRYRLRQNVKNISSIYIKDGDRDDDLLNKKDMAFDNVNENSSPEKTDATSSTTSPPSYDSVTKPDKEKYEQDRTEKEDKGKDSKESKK

For `CC(=O)Nc1cc(C(=O)NCc2ccc(OC(F)(F)F)c(C)c2)cc(C)n1` [Example 808, 2-acetamido-6-methyl-N-(3-methyl-4-(trifluoromethoxy)benzyl)isonicotinamide], the IC50 at human Nav1.3 channels and at human Nav1.7 channels was below 1000 nM in each case.
For `Cc1cc(C(=O)NCc2ccc(OC(F)(F)F)c(C)c2)cc(NC(=O)C(C)C)n1` [Example 809, 2-isobutyramido-6-methyl-N-(3-methyl-4-(trifluoromethoxy)benzyl)isonicotinamide], the IC50 at human Nav1.3 channels and at human Nav1.7 channels was below 1000 nM each time.
As to `Cc1cc(CNC(=O)c2ccnc(NC(=O)C3CC3)n2)ccc1OC(F)(F)F` [Example 810, 2-(cyclopropanecarboxamido)-N-(3-methyl-4-(trifluoromethoxy)benzyl)pyrimidine-4-carboxamide], the IC50 on human Nav1.3 channels and on human Nav1.7 channels was below 1000 nM throughout.
As to `Cc1cc(C(=O)NCc2ccc(OC(F)(F)F)c(C)c2)nc(NC(=O)C2CC2)n1` [Example 811, 2-(cyclopropanecarboxamido)-6-methyl-N-(3-methyl-4-(trifluoromethoxy)benzyl)pyrimidine-4-carboxamide], the half-inhibitory concentration (IC50) on human Nav1.3 channels and on human Nav1.7 channels was below 1000 nM in each case.
For `CC(=O)Nc1cc(C(=O)NCc2cccc(C(F)(F)F)c2C)cc(C)n1` [Example 815, 2-acetamido-6-methyl-N-(2-methyl-3-(trifluoromethyl)benzyl)isonicotinamide], the IC50 on human Nav1.3 channels and on human Nav1.7 channels was below 1000 nM in each case.
In the case of `Cc1c(CNC(=O)c2ccnc(NC(=O)C(C)C)c2)cccc1C(F)(F)F` [Example 816, 2-isobutyramido-N-(2-methyl-3-(trifluoromethyl)benzyl)isonicotinamide], the IC50 on human Nav1.3 channels and on human Nav1.7 channels was below 1000 nM in each case.
In the case of `Cc1cc(C(=O)NCc2cnc(OCC(F)(F)F)c(C)c2)cc(NC(=O)C2CC2)n1` [Example 824, 2-(cyclopropanecarboxamido)-6-methyl-N-((5-methyl-6-(2,2,2-trifluoroethoxy)pyridin-3-yl)methyl)isonicotinamide], the IC50 on human Nav1.3 channels and on human Nav1.7 channels was below 1000 nM in each case.
For `CCc1cc(CNC(=O)c2cc(C)nc(NC(=O)C3CC3)c2)cnc1OCC(F)(F)F` [Example 825, 2-(cyclopropanecarboxamido)-N-((5-ethyl-6-(2,2,2-trifluoroethoxy)pyridin-3-yl)methyl)-6-methylisonicotinamide], the IC50 on human Nav1.3 channels and on human Nav1.7 channels was below 1000 nM in each case.
With `Cc1cc(C(=O)NCc2ccc(OCC(F)(F)F)c(C)c2)cc(NC(=O)C2CC2)n1` [Example 831, 2-(cyclopropanecarboxamido)-6-methyl-N-(3-methyl-4-(2,2,2-trifluoroethoxy)benzyl)isonicotinamide], the concentration for half-maximal inhibition (IC50) on human Nav1.3 channels and at human Nav1.7 channels was below 1000 nM in each case.
As to `Cc1cc(C(=O)NCc2cccc(OC(F)(F)F)c2)cc(NC(=O)C2CC2)n1` [Example 836, 2-(cyclopropanecarboxamido)-6-methyl-N-(3-(trifluoromethoxy)benzyl)isonicotinamide], the IC50 on human Nav1.3 channels and on human Nav1.7 channels was below 1000 nM throughout.
Turning to `COc1c(CNC(=O)c2cc(C)nc(NC(=O)C(C)C)c2)cccc1C(F)(F)F` [Example 880, 2-isobutyramido-N-(2-methoxy-3-(trifluoromethyl)benzyl)-6-methylisonicotinamide], the IC50 at human Nav1.3 channels and on human Nav1.7 channels was below 1000 nM in each case.
Regarding `CCC(=O)Nc1cc(C(=O)NCc2cnc(OCC(F)(F)F)c(Br)c2)ccn1` [Example 895, N-((5-bromo-6-(2,2,2-trifluoroethoxy)pyridin-3-yl)methyl)-2-propionamidoisonicotinamide], the IC50 at human Nav1.3 channels and on human Nav1.7 channels was below 1000 nM each time.
As for `O=C(NCc1cnc(OCC(F)(F)F)c(Br)c1)c1ccnc(NC(=O)C2CC2)c1` [Example 896, N-((5-bromo-6-(2,2,2-trifluoroethoxy)pyridin-3-yl)methyl)-2-(cyclopropanecarboxamido)isonicotinamide], the IC50 on human Nav1.3 channels and on human Nav1.7 channels was below 1000 nM throughout.
For the compound `O=C(NCc1cnc(OCC(F)(F)F)c(Br)c1)c1ccnc(NC(=O)C2CC2)n1` [Example 898, N-((5-bromo-6-(2,2,2-trifluoroethoxy)pyridin-3-yl)methyl)-2-(cyclopropanecarboxamido)pyrimidine-4-carboxamide], the IC50 at human Nav1.3 channels and on human Nav1.7 channels was below 1000 nM throughout.
Take `CC(=O)Nc1cc(C(=O)NCc2cnc(OCC(F)(F)F)c(Br)c2)cc(C)n1` [Example 899, 2-acetamido-N-((5-bromo-6-(2,2,2-trifluoroethoxy)pyridin-3-yl)methyl)-6-methylisonicotinamide]: the IC50 at human Nav1.3 channels and at human Nav1.7 channels was below 1000 nM in each case.
As to `Cc1cc(C(=O)NCc2cnc(OCC(F)(F)F)c(Br)c2)nc(NC(=O)C2CC2)n1` [Example 902, N-((5-bromo-6-(2,2,2-trifluoroethoxy)pyridin-3-yl)methyl)-2-(cyclopropanecarboxamido)-6-methylpyrimidine-4-carboxamide], the IC50 at human Nav1.3 channels and at human Nav1.7 channels was below 1000 nM throughout.
In the case of `CCc1cc(CNC(=O)c2cc(C)nc(NC(=O)C(C)C)c2)cnc1OCC(F)F` [Example 911, N-((6-(2,2-difluoroethoxy)-5-ethylpyridin-3-yl)methyl)-2-isobutyramido-6-methylisonicotinamide], the IC50 at human Nav1.3 channels and on human Nav1.7 channels was below 1000 nM throughout.
For the compound `CCC(=O)Nc1cc(C(=O)NCc2cnc(OCC(F)F)c(CC)c2)ccn1` [Example 930, N-((6-(2,2-difluoroethoxy)-5-ethylpyridin-3-yl)methyl)-2-propionamidoisonicotinamide], the IC50 on human Nav1.3 channels and at human Nav1.7 channels was below 1000 nM in each case.
Regarding `CC(=O)Nc1cc(C(=O)NCc2cnc(OCC(F)(F)C(F)F)c(C)c2)ccn1` [Example 939, 2-acetamido-N-((5-methyl-6-(2,2,3,3-tetrafluoropropoxy)pyridin-3-yl)methyl)isonicotinamide], the IC50 on human Nav1.3 channels and at human Nav1.7 channels was below 1000 nM each time.
With `CCC(=O)Nc1cc(C(=O)NCc2cnc(OCC(F)(F)C(F)F)c(C)c2)ccn1` [Example 940, N-((5-methyl-6-(2,2,3,3-tetrafluoropropoxy)pyridin-3-yl)methyl)-2-propionamidoisonicotinamide], the IC50 at human Nav1.3 channels and on human Nav1.7 channels was below 1000 nM in each case.
For the compound `Cc1cc(CNC(=O)c2ccnc(NC(=O)C(C)C)c2)cnc1OCC(F)(F)C(F)F` [Example 941, 2-isobutyramido-N-((5-methyl-6-(2,2,3,3-tetrafluoropropoxy)pyridin-3-yl)methyl)isonicotinamide], the IC50 on human Nav1.3 channels and at human Nav1.7 channels was below 1000 nM each time.
As to `Cc1cc(CNC(=O)c2ccnc(NC(=O)C3CC3)c2)cnc1OCC(F)(F)C(F)F` [Example 942, 2-(cyclopropanecarboxamido)-N-((5-methyl-6-(2,2,3,3-tetrafluoropropoxy)pyridin-3-yl)methyl)isonicotinamide], the IC50 on human Nav1.3 channels and at human Nav1.7 channels was below 1000 nM throughout.
On to `Cc1cc(CNC(=O)c2ccnc(NC(=O)C3CC3)n2)cnc1OCC(F)(F)C(F)F` [Example 943, 2-(cyclopropanecarboxamido)-N-((5-methyl-6-(2,2,3,3-tetrafluoropropoxy)pyridin-3-yl)methyl)pyrimidine-4-carboxamide], for which the IC50 on human Nav1.3 channels and on human Nav1.7 channels was below 1000 nM in each case.
